Laboratory results published in patent US20250059162A1, “MULTI-PROTEIN DEGRADATION AGENT HAVING IMIDE SKELETON” (SUZHOU KINTOR PHARMACEUTICALS, INC., priority 2021, published 2025).

Key:
Type in all cases: cell-based
HL60 cells = experiment: Anti-proliferation on HL60 cells (CellTiter-Glo, 3 days); details: Homo sapiens, HL-60, 72 h, 3 days incubation, CTG luminescence, IC50 by XLfit, read-out: HL60 cells Proliferation inhibitory activity
Method in brief: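 Log-phase cells were plated at 20000 cells/well and treated with compound dilutions in RPMI-1640 for 3 days, with 0.1% DMSO controls. Proliferation was read by CellTiter-Glo luminescence. IC50 was fitted from the inhibition rates.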

c-Myc protein = biological target: T1, c-Myc protein (Homo sapiens, UniProt P01106); experiment: c-Myc protein degradation in HL60 cells (Western blot); details: for remaining activity at 0.01 µM: HL-60, compound at 10 nM, 24 h, gray value relative to Ctrl (DMSO), read-out: Remaining amount of c-Myc protein (@10 nM/Ctrl)
T1 construct: degradation of myc and GSPT1 proteins in HL60 cells; endogenous in cells; host or cells: HL60
Protocol: (§1) HL60 cells in the exponential growth phase were digested and plated into a 6-well plate at 1×10^6 cells per well. The cell culture medium was RPMI-1640 (meilunbio, MA0215). After a day of adherent growth of the cells, the compound of the present invention was added as a test drug for culture, and proteins were extracted 24 h later (Ctrl meant adding only DMSO at the same volume).
(§2) In the 6-well plate, the culture medium RPMI-1640 (meilunbio, MA0215) was removed, and the cells were washed once with PBS, digested with trypsin, and centrifuged and collected separately into 1.5 mL centrifuge tubes. 100 μL of RIPA lysis buffer (containing 100 μM PMSF) was added to each tube, mixed thoroughly, allowed to stand on ice for 30 min and then centrifuged at 12000 rpm at 4° C. using a centrifuge for 20 min. The supernatant was used for Western blotting experiments. The sample can be stored at −80° C.
(§3) By using the BCA protein concentration determination kit (from Thermo Fisher, Cat. No. 23225), the BSA standard determination solution and the samples to be tested (the samples to be tested can be diluted and then tested) were prepared according to the table A below. Samples were added to the 96-well plate. Each well was supplemented with PBS to 20 μL, and then 200 μL of BCA working solution (prepared according to the kit) was added respectively and mixed evenly. The plate was placed at 60° C. for 10 min, and then the absorbance at 562 nm was detected. After the reading was recorded, a standard curve was plotted using concentration gradients of the standards, and the absorbance of the samples was substituted to calculate the protein concentration of the samples.
(§4) • 2.1 Protein denaturation: RIPA protein buffer (purchased from Solarbio, Cat. No. R0010) and 5× Loading Buffer (SDS, glycerin, bromophenol blue, TRIS) (purchased from Solarbio, Cat. No. P1040) were added, and the protein samples were denatured at 100° C. for 5 min. • 2.2 Sample loading and electrophoresis: 10% precast gel and the corresponding electrophoresis buffer were used. The same mass of protein sample and protein ladder (purchased from thermo, Cat. No. 26617) were loaded into each well, and electrophoresis at 200 V was performed for 30 min. • 2.3 […]: The gel was excised to remove the excess part. Transferring to PVDF membrane was performed by the wet transfer method (before use, it was necessary to activate the PVDF membrane with methanol for 1 min) at 300 mA for 2 h, during which a lot of heat was generated, and thus cooling with an ice box was required. • 2.4 Blocking: After the transferring, the PVDF membrane was placed in 5% skim milk and blocked with shaking at room temperature for 1 h. • 2.5 Incubating with primary antibody: The PVDF membrane was cut according to the molecular weight indicated on the marker and placed in c-myc (purchased from abcam, Cat. No. ab32072), or GSPT1 (purchased from abcam, Cat. No. ab234433), or CK1α (purchased from abcam, Cat. No. ab206652), or IKZF2 (purchased from proteintech, Cat. No. 13554-1-AP), and GAPDH (purchased from CST, Cat. No. #97166) primary antibodies. The antibodies were diluted with TBST buffer (a solution prepared from TRIS, KCL and NaCl and adjusted to pH 7.4 with hydrochloric acid, and Tween 20 was added) at a ratio of 1:1000, and blocked overnight on a shaker at 4° C. • 2.6 Incubating with secondary antibody: The PVDF membrane incubated with the primary antibody was washed with TBST for 3 times, each time for 10 min. After washing, the membrane was placed in the secondary antibody of the corresponding species, and incubated at room temperature in a shaker for 2 h. • 2.7 Washing membrane and exposure: After incubated with the secondary antibodies, the membrane was washed 3 times with TBST on a shaker, 10 minutes each time. […]

GSPT1 protein = biological target: T2, GSPT1 protein (Homo sapiens, UniProt P15170); experiment: GSPT1 protein degradation in HL60 cells (Western blot); details: for remaining GSPT1 protein at 0.01 µM: HL-60, compound at 10 nM, 24 h, gray value relative to Ctrl (DMSO), read-out: Remaining amount of GSPT1 protein (@10 nM/Ctrl)
T2 construct: degradation of myc and GSPT1 proteins in HL60 cells; endogenous in cells; host or cells: HL60
Protocol: as §1, §2, §3, §4

T2 sequence (P15170 whole entry): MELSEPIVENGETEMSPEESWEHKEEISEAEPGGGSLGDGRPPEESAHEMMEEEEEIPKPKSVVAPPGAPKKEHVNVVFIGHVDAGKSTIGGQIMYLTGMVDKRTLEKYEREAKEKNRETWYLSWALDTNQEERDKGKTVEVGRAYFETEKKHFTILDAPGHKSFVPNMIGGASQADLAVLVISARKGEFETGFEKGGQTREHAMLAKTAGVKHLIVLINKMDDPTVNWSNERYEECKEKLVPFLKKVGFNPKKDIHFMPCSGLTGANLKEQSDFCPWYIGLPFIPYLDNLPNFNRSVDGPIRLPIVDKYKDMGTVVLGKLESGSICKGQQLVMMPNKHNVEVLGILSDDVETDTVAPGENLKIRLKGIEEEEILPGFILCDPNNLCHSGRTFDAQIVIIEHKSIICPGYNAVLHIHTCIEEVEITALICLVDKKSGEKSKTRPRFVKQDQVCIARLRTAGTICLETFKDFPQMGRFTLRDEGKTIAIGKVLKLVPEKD
T1 sequence (P01106 whole entry): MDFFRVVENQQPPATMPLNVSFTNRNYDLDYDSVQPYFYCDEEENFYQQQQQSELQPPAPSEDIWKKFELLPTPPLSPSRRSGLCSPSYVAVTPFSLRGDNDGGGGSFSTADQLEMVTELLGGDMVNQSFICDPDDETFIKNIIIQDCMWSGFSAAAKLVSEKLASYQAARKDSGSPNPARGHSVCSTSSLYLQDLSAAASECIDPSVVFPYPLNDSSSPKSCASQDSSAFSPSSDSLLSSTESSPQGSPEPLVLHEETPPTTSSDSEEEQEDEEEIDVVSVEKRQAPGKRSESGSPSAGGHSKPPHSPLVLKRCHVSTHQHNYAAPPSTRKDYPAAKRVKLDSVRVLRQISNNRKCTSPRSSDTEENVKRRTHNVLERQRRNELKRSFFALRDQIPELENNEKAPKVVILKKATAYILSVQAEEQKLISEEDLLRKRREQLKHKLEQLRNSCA

Row | Compound | IC50 (HL60 cells) [nM] | remaining activity at 0.01 µM (c-Myc protein) [%] | remaining GSPT1 protein at 0.01 µM (GSPT1 protein) [%] | Degradation of c-Myc protein in HL60 cells at 300 nM (FIG. 2, FIG. 3, in words) (c-Myc protein) | Degradation of GSPT1 protein in HL60 cells at 300 nM (FIG. 2, FIG. 3, in words) (GSPT1 protein) | Degradation of GSPT1 protein in HL60 cells at 100 nM (FIG. 3, in words) (GSPT1 protein)
1 | O=C1CCC(N2Cc3cc(CNCC4CCN(c5ncc(-c6cccc(Cl)c6)cc5C(F)(F)F)CC4)c(F)cc3C2=O)C(=O)N1 (stereo not shown) [Compound A140] | 17.1 | 95 | 47 | – | – | –
2 | O=C1C[C@H](N2Cc3cc(CNCC4CCN(c5ncc(-c6cccc(Cl)c6)cc5C(F)(F)F)CC4)ccc3C2=O)C(=O)N1 [Compound A169] | 46.3 | 105 | 65 | simultaneously degrade both GSPT1 and c-Myc proteins | significantly degrade GSPT1 protein | –
3 | O=C1CCC(N2Cc3cc(CNCC4CCN(c5ncc(-c6cccc7ccccc67)s5)CC4)ccc3C2=O)C(=O)N1 (stereo not shown) [Compound A61] | 0.3 | 0 | 4 | – | – | –
4 | O=C1CCC(N2Cc3cc(CNCC4CCN(c5cnc(-c6cccc7ccccc67)nc5)CC4)ccc3C2=O)C(=O)N1 (stereo not shown) [Compound A64] | 10 | 0 | 5 | – | – | –
5 | N#Cc1cccc(-c2cnc(N3CCC(CNCc4ccc5c(c4)CN(C4CCC(=O)NC4=O)C5=O)CC3)nc2)c1 (stereo not shown) [Compound A69] | 22 | 30 | 53 | – | – | –
6 | O=C1CCC(N2Cc3cc(CNCC4CCN(c5ccc(-c6cccc(Cl)c6)nc5)CC4)ccc3C2=O)C(=O)N1 (stereo not shown) [Compound A71] | < 0.2 | 26 | 0 | – | – | –
7 | O=C1CCC(N2Cc3cc(CNCC4CCN(c5ncc(-c6cccc(F)c6)cn5)CC4)ccc3C2=O)C(=O)N1 (stereo not shown) [Compound A67] | 2 | 19 | 25 | – | – | –
8 | O=C1CCC(N2Cc3cc(NCCC4CCN(c5ncc(-c6cccc(Cl)c6)cc5C(F)(F)F)CC4)ccc3C2=O)C(=O)N1 (stereo not shown) [Compound A131] | 35.8 | – | – | simultaneously degrade both GSPT1 and c-Myc proteins | simultaneously degrade both GSPT1 and c-Myc proteins | significantly degrade GSPT1 protein
9 | O=C1CCC(N2Cc3cc(CNCC4CCN(c5ncc(-c6ccccc6F)cc5F)CC4)ccc3C2=O)C(=O)N1 (stereo not shown) [Compound A107] | 9.1 | 46 | 1 | – | – | –
10 | O=C1CCC(N2Cc3cc(CNCC4CCN(c5ncc(-c6ccccc6Cl)cc5F)CC4)ccc3C2=O)C(=O)N1 (stereo not shown) [Compound A72] | 63 | 16 | 0 | – | – | –
11 | COC(=O)c1cc(-c2cccc(Cl)c2)cnc1N1CCC(CNCc2ccc3c(c2)CN(C2CCC(=O)NC2=O)C3=O)CC1 (stereo not shown) [Compound A100] | < 0.2 | 0 | 0 | – | – | –
12 | O=C1CCC(N2Cc3cc(CNCC4CCN(c5ncc(-c6cccc(F)c6)cc5C(F)(F)F)CC4)ccc3C2=O)C(=O)N1 (stereo not shown) [Compound A93] | 1.6 | 12 | 0 | – | – | –
13 | O=C1CCC(N2Cc3cc(CNC(=O)C4CCN(c5ncc(-c6cccc(Cl)c6)cn5)CC4)ccc3C2=O)C(=O)N1 (stereo not shown) [Compound A65] | < 0.2 | 0 | 14 | – | – | –
14 | O=C1CCC(N2Cc3cc(CNCC4CCN(c5ccc(-c6cccc(Cl)c6)cn5)CC4)ccc3C2=O)C(=O)N1 (stereo not shown) [Compound A70] | < 0.2 | 216 | 23 | – | – | –
15 | CC(NCc1ccc2c(c1)CN(C1CCC(=O)NC1=O)C2=O)C1CCN(c2ncc(-c3cccc(Cl)c3)cc2F)CC1 (stereo not shown) [Compound A105] | 55 | 333 | 7 | – | – | –
16 | O=C1CCC(N2Cc3cc(CNCC4CCN(c5ncc(-c6cccc(Cl)c6)cc5F)CC4)ccc3C2=O)C(=O)N1 (stereo not shown) [Compound A73] | < 0.2 | 0 | 0 | – | – | –
17 | O=C1CCC(N2Cc3cc(CNCC4CCN(c5ncc(-c6ccc(F)cc6)cc5F)CC4)ccc3C2=O)C(=O)N1 (stereo not shown) [Compound A109] | 6.2 | 3 | 6 | – | – | –
18 | N#Cc1cccc(-c2cnc(N3CCC(CNCc4ccc5c(c4)CN(C4CCC(=O)NC4=O)C5=O)CC3)c(F)c2)c1 (stereo not shown) [Compound A111] | 1.3 | 6 | 2 | – | – | –
19 | Cc1cccc(-c2cnc(N3CCC(CNCc4ccc5c(c4)CN(C4CCC(=O)NC4=O)C5=O)CC3)c(C(F)(F)F)c2)c1 (stereo not shown) [Compound A94] | 0.1 | 0 | 0 | – | – | –
20 | O=C1CCC(N2Cc3cc(CNCC4CCN(c5cnc(-c6cccc7ccccc67)cn5)CC4)ccc3C2=O)C(=O)N1 (stereo not shown) [Compound A63] | 0.2 | 19 | 5 | – | – | –
21 | COc1cccc(-c2cnc(N3CCC(CNCc4ccc5c(c4)CN(C4CCC(=O)NC4=O)C5=O)CC3)c(C(F)(F)F)c2)c1 (stereo not shown) [Compound A95] | < 0.2 | 0 | 0 | – | – | –
22 | N#Cc1cc(-c2cccc(Cl)c2)ccc1N1CCC(CNCc2ccc3c(c2)CN(C2CCC(=O)NC2=O)C3=O)CC1 (stereo not shown) [Compound A103] | 1.5 | 6 | 0 | – | – | –
23 | O=C1CCC(N2Cc3cc(CCCC4CCN(c5ncc(-c6cccc(Cl)c6)cc5C(F)(F)F)CC4)ccc3C2=O)C(=O)N1 (stereo not shown) [Compound A134] | 223 | – | – | simultaneously degrade both GSPT1 and c-Myc proteins | simultaneously degrade both GSPT1 and c-Myc proteins | significantly degrade GSPT1 protein
